For 50 compounds, IC50 results are on record in patent US20140088124A1, “IMIDAZOLE DERIVATIVES” (priority 2011, published 2014).

This assay addresses T1, human DGAT1 (Homo sapiens, UniProt O75907).
T1 sequence (O75907 1-488): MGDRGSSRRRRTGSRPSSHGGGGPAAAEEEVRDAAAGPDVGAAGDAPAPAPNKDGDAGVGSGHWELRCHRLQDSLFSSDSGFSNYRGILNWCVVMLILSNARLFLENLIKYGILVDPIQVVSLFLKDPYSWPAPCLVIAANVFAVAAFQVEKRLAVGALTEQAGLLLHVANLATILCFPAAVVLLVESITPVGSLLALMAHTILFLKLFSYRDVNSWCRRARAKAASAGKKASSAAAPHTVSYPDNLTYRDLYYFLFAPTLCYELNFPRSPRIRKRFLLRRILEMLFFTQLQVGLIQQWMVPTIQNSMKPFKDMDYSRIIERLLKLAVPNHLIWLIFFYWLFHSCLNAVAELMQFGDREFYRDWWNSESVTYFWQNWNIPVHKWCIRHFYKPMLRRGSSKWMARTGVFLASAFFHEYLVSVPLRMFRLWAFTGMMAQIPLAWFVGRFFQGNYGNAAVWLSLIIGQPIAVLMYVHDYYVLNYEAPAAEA
In words: DGAT1 CPM Assay. It counts as biochemical. The following applies: human DGAT1, CPM fluorescence, 1 hour incubation at room temperature. As for the experimental part: 20 uL of 90 uM CPM reagent in 90% ethanol was added after 1 hour incubation at room temperature.
By IC50 is commonly meant the concentration that gives 50% inhibition. Low values mean greater potency in that assay, high ones weaker potency in that assay. Take `O=C(O)C[C@H]1CC[C@@H](OC2CCN(c3ccc(-c4nc5cc(F)ccc5[nH]4)cn3)C2)CC1` (single isomer, unassigned) [Example 139]: the IC50 was 12 nM.

As to `O=C(O)C[C@H]1CC[C@@H](OC2CCN(c3ccc(-c4nc5cc(F)ccc5[nH]4)cn3)C2)CC1` (single isomer, unassigned) [Example 140], half-maximal inhibition (IC50) required 89 nM.

The compound `O=C(O)C[C@H]1CC[C@@H](O[C@H]2C[C@H]3C[C@@H]2CN3c2ccc(-c3nc4cc(F)ccc4[nH]3)cn2)CC1` (single isomer, unassigned; enantiomer 1) [Example 28, [cis-4-({2-[5-(5-fluoro-1-benzimidazol-2-yl)pyridin-2-yl]-2-azabicyclo[2.2.1]hept-5-yl}oxy)cyclohexyl]acetic acid enantiomer 1] returned an IC50 of 23 nM. This IC50 lies about 3.9-fold lower than the previous one.

In turn, `O=C(O)C[C@H]1CC[C@@H](O[C@@H]2CC3C[C@H]2CN3c2ccc(-c3nc4cc(F)ccc4[nH]3)cn2)CC1` (single isomer, unassigned; enantiomer 2) [Example 29, [cis-4-({2-[5-(5-fluoro-1H-benzimidazol-2-yl)pyridin-2-yl]-2-azabicyclo[2.2.1]hept-5-yl}oxy)cyclohexyl]acetic acid enantiomer 2] yielded an IC50 of 5000 nM.

For `O=C(O)C[C@H]1CC[C@H](OC2CCN(c3ccc(-c4nc5ccc(F)cc5[nH]4)cn3)CC2)CC1` [Example 1, [trans-4-({1-[5-(6-fluoro-1H-benzimidazol-2-yl)pyridin-2-yl]piperidin-4-yl}oxy)cyclohexyl]acetic acid], it took 6 nM to reach half-maximal inhibition (IC50).

Consider `O=C(O)C[C@H]1CC[C@@H](OC2CCN(c3ccc(-c4nc5ccc(F)cc5[nH]4)cn3)CC2)CC1` [Example 2, [cis-4-({1-[5-(6-fluoro-1H-benzimidazol-2-yl)pyridin-2-yl]piperidin-4-yl}oxy)cyclohexyl]acetic acid], for which the IC50 is 8 nM.

Turning to `CCOc1ccc2nc(-c3ccc(N4CCC(O[C@H]5CC[C@H](CC(=O)O)CC5)CC4)nc3)[nH]c2n1` [Example 4, [trans-4-({1-[5-(5-ethoxy-3H-imidazo[4,5-b]pyridin-2-yl)pyridin-2-yl]piperidin-4-yl}oxy)cyclohexyl]acetic acid], the IC50 was 27 nM.

As for `O=C(O)C[C@H]1CC[C@@H](OC2CCN(c3ccc(-c4nc5ccc(C(F)(F)F)cc5[nH]4)cn3)CC2)CC1` [Example 5], the IC50 came to 5 nM. Against the preceding compound, the IC50 is about 5.4-fold lower.

Compound `O=C(O)C[C@H]1CC[C@H](OC2CCN(c3ccc(-c4nc5ccccc5[nH]4)cn3)CC2)CC1` [Example 7] displayed an IC50 of 19 nM.

As for `O=C(O)C[C@H]1CC[C@@H](OC2CCN(c3ccc(-c4nc5ccccc5[nH]4)cn3)CC2)CC1` [Example 8], the IC50 is 15 nM. This IC50 and that of the compound before are within 1.5-fold of each other.

On to `CCOc1ccc2nc(-c3ccc(N4CCC(O[C@H]5CC[C@@H](CC(=O)O)CC5)CC4)nc3)[nH]c2n1` [Example 9], for which the IC50 stood at 20 nM.

`Cc1nc(N2CCC(O[C@H]3CC[C@H](CC(=O)O)CC3)CC2)ccc1-c1nc2ccccc2[nH]1` [Example 10] yielded an IC50 of 7900 nM.

For the compound `Cc1nc(N2CCC(O[C@H]3CC[C@@H](CC(=O)O)CC3)CC2)ccc1-c1nc2ccccc2[nH]1` [Example 11], the IC50 was 6600 nM.

As for `Cc1cc(N2CCC(O[C@H]3CC[C@H](CC(=O)O)CC3)CC2)ncc1-c1nc2ccccc2[nH]1` [Example 12], the IC50 was determined as 349 nM.

On to `Cc1cc(N2CCC(O[C@H]3CC[C@@H](CC(=O)O)CC3)CC2)ncc1-c1nc2ccccc2[nH]1` [Example 13], for which half-maximal inhibition (IC50) required 147 nM.

Take `O=C(O)C[C@H]1CC[C@H](OC2CCN(c3ccc(-c4nc5cccc(Br)c5[nH]4)cn3)CC2)CC1` [Example 14]: the midpoint of inhibition, the IC50, lay at 7 nM.

Compound `O=C(O)C[C@H]1CC[C@H](OC2CCN(c3ccc(-c4nc5cc(F)c(F)c(Br)c5[nH]4)cn3)CC2)CC1` [Example 15] came in with an IC50 of 2 nM. This IC50 is about 3.5-fold lower than that of the compound before.

`O=C(O)C[C@H]1CC[C@H](OC2CCN(c3ccc(-c4nc5cc(F)c(F)cc5[nH]4)cn3)CC2)CC1` [Example 16, [trans-4-({1-[5-(5,6-difluoro-1H-benzimidazol-2-yl)pyridin-2-yl]piperidin-4-yl}oxy)cyclohexyl]acetic acid] displayed an IC50 of 4 nM.

As to `O=C(O)C[C@H]1CC[C@H](OC2CCN(c3ccc(-c4nc5cc(C(F)(F)F)cnc5[nH]4)cn3)CC2)CC1` [Example 17], the IC50 worked out at 24 nM.

In turn, `N#Cc1ccc2[nH]c(-c3ccc(N4CCC(O[C@H]5CC[C@H](CC(=O)O)CC5)CC4)nc3)nc2c1` [Example 18] returned an IC50 of 26 nM. This IC50 and that of the compound before are within 1.5-fold of each other.

Turning to `O=C(O)C[C@H]1CC[C@H](OC2CCN(c3ccc(-c4nc5cc(Cl)ccc5[nH]4)cn3)CC2)CC1` [Example 19], the IC50 came to 3 nM.

In the case of `O=C(O)C[C@H]1CC[C@H](OC2CCN(c3ccc(-c4nc5cc(Cl)cnc5[nH]4)cn3)CC2)CC1` [Example 20], the midpoint of inhibition, the IC50, lay at 61 nM.

`Cc1ccc2[nH]c(-c3ccc(N4CCC(O[C@H]5CC[C@H](CC(=O)O)CC5)CC4)nc3)nc2n1` [Example 21] yielded an IC50 of 440 nM. Against the preceding compound, the IC50 is about 7.2-fold higher.

`COc1ccc2[nH]c(-c3ccc(N4CCC(O[C@H]5CC[C@H](CC(=O)O)CC5)CC4)nc3)nc2n1` [Example 22] displayed an IC50 of 51 nM.

As for `O=C(O)C[C@H]1CC[C@H](OC2CCN(c3ccc(-c4nc5nc(C(F)(F)F)ccc5[nH]4)cn3)CC2)CC1` [Example 23], half-maximal inhibition (IC50) was put at 16 nM.

In the case of `CCCCc1ccc2nc(-c3ccc(N4CCC(O[C@H]5CC[C@@H](CC(=O)O)CC5)CC4)nc3)[nH]c2c1` [Example 24, [cis-4-({1-[5-(6-butyl-1H-benzimidazol-2-yl)pyridin-2-yl]piperidin-4-yl}oxy)cyclohexyl]acetic acid], inhibition was half-maximal at 4 nM (IC50).

Consider `O=C(O)C[C@H]1CC[C@@H](OC2CCN(c3ccc(-c4nc5cc(F)c(F)cc5[nH]4)cn3)CC2)CC1` [Example 25], for which the half-maximal inhibitory concentration (IC50) came to 3 nM.

`O=C(O)C[C@H]1CC[C@@H](OC2CCN(c3ccc(-c4nc5cc(Cl)ccc5[nH]4)cn3)CC2)CC1` [Example 26] gave an IC50 of 3 nM.

In turn, `O=C(O)C[C@H]1CC[C@@H](OC2CCN(c3ccc(-c4nc5nc(C(F)(F)F)ccc5[nH]4)cn3)CC2)CC1` [Example 27] had an IC50 of 13 nM. This IC50 is about 4.3-fold higher than that of the compound before.

As to `O=C(O)[C@H]1C[C@@H](OC2CCN(c3ccc(-c4nc5ccc(C(F)(F)F)cc5[nH]4)cn3)CC2)C1` [Example 32, cis-3-[(1-{5-[6-(trifluoromethyl)-1H-benzimidazol-2-yl]pyridin-2-yl}piperidin-4-yl)oxy]cyclobutanecarboxylic acid], the IC50 stood at 9 nM.

`O=C(O)[C@H]1C[C@H](OC2CCN(c3ccc(-c4nc5ccc(C(F)(F)F)cc5[nH]4)cn3)CC2)C1` [Example 33, trans-3-[(1-{5-[6-(trifluoromethyl)-1H-benzimidazol-2-yl]pyridin-2-yl}piperidin-4-yl)oxy]cyclobutanecarboxylic acid]: the IC50 came to 7 nM. This IC50 and that of the compound before are within 1.5-fold of each other.

On to `CC(C)(COC1CCN(c2ccc(-c3nc4cc(C(F)(F)F)ccc4[nH]3)cn2)CC1)C(=O)O` [Example 34], for which half-maximal inhibition (IC50) required 4 nM.

For `COC(=O)C(C)(C)COC1CCN(c2ccc(-c3nc4ccccc4[nH]3)cn2)CC1` [Example 35], half-maximal inhibition (IC50) was put at 29 nM.

For `CC(C)(COC1CCN(c2ccc(-c3nc4ccccc4[nH]3)cn2)CC1)C(=O)O` [Example 36], half-maximal inhibition (IC50) required 67 nM.

With `O=C(O)C1(COC2CCN(c3ccc(-c4nc5ccc(C(F)(F)F)cc5[nH]4)cn3)CC2)CCC1` [Example 37], the IC50 stood at 2 nM.

`O=C(O)C1(COC2CCN(c3ccc(-c4nc5ccc(C(F)(F)F)cc5[nH]4)cn3)CC2)CC1` [Example 38] had an IC50 of 8 nM.

For `O=C(O)C1(COC2CCN(c3ccc(-c4nc5ccc(F)cc5[nH]4)cn3)CC2)CCC1` [Example 39], the IC50 stood at 15 nM.

`O=C(O)C1(COC2CCN(c3ccc(-c4nc5ccccc5[nH]4)cn3)CC2)CC1` [Example 41] showed an IC50 of 1200 nM.

Take `O=C(O)C1(COC2CCN(c3ccc(-c4nc5ccccc5[nH]4)cn3)CC2)CCC1` [Example 42]: the IC50 worked out at 50 nM.

With `O=C(O)C1(COC2CCN(c3ccc(-c4nc5ccc(Cl)cc5[nH]4)cn3)CC2)CCC1` [Example 43], the IC50 was determined as 6 nM.

The compound `COc1ccc2nc(-c3ccc(N4CCC(OCC5(C(=O)O)CCC5)CC4)nc3)[nH]c2n1` [Example 44] came in with an IC50 of 89 nM.

For the compound `O=C(O)C1(COC2CCN(c3ccc(-c4nc5ccc(C(F)(F)F)cc5[nH]4)cn3)CC2)CCOCC1` [Example 45], the IC50 was found to be 7 nM. Against the preceding compound, the IC50 is about 13-fold lower.

`O=C(O)C1(COC2CCN(c3ccc(-c4nc5ccc(F)cc5[nH]4)cn3)CC2)CCOCC1` [Example 46] returned an IC50 of 97 nM.

`CC(C)(COC1CCN(c2ccc(-c3nc4cc(Cl)ccc4[nH]3)cn2)CC1)C(=O)O` [Example 47]: half-maximal inhibition (IC50) was put at 5 nM. This IC50 is about 19-fold lower than that of the compound before.

For `COc1ccc2[nH]c(-c3ccc(N4CCC(OCC(C)(C)C(=O)O)CC4)nc3)nc2n1` [Example 48], half-maximal inhibition (IC50) was put at 60 nM.

`O=C(O)C1(COC2CCN(c3ccc(-c4nc5ccccc5[nH]4)cn3)CC2)CCOCC1` [Example 49] displayed an IC50 of 220 nM.

With `O=C(O)C1(COC2CCN(c3ccc(-c4nc5ccc(Cl)cc5[nH]4)cn3)CC2)CCOCC1` [Example 50], the IC50 was found to be 17 nM.

As for `O=C(O)CC1CC(OC2CCN(c3ccc(-c4nc5ccc(C(F)(F)F)cc5[nH]4)cn3)CC2)C1` (centres unmarked) [Example 51], the IC50 came out at 6 nM.

The compound `O=C(O)CC1CC(OC2CCN(c3ccc(-c4nc5ccc(C(F)(F)F)cc5[nH]4)cn3)CC2)C1` (centres unmarked) [Example 52] showed a half-maximal inhibitory concentration (IC50) of 10 nM.

In the case of `O=C(O)CC1CC(OC2CCN(c3ccc(-c4nc5cc(F)ccc5[nH]4)cn3)CC2)C1` (centres unmarked) [Example 53], the IC50 amounted to 56 nM.
